Read-outs that look alike come from different tables or passages of the source. Where a SMILES comes first, the peptide text is derived from it. Bridges are numbered along the chain shown (N, C = ends). [ ]: non-standard residue; d: D form. R8 = C=CCCCCCC[C@@](C)(N)C(=O)O; S5 = C=CCCC[C@](C)(N)C(=O)O; Abu = CC[C@H](N)C(=O)O
System: Molt-4 cell line
Assay type: cell-based
Experimental: Molt-4 cell line (ATCC catalog #CRL-1582) was grown in specific serum-supplemented media (RPMI-1640, Invitrogen catalog #72400) as recommended by ATCC. A day prior to the initiation of the study, cells were split at optimal cell density (2×10^5-5×10^5 cells/ml) to assure actively dividing cells. The next day, cells were washed twice in serum-free Opti-MEM media (Invitrogen, Catalog #51985) and cells were then plated at optimal cell density (10,000 cells/well) in 50 μl Opti-MEM media or Opti-MEM supplemented with 2%, 4% or 10% human serum (Bioreclamation, catalog #HMSRM) in 96-well white tissue culture plate (Nunc, catalog #136102).
For serum free experiment, peptidomimetic macrocycles were diluted from 2 mM stocks (100% DMSO) in sterile water to prepare 400 μM working solutions. The macrocycles and controls were diluted 10-fold first and then serially two-fold diluted in Opti-MEM in dosing plates to provide concentrations of between 1.2 and 40 μM. 50 μL of each dilution was then added to the appropriate wells of the test plate to achieve final concentrations of the polypeptides equal to between 0.6 to 20 μM. For studies using Opti-MEM supplemented with human serum (Bioreclamation, catalog #HMSRM), peptidomimetic macrocycles were diluted from 10 mM stocks (100% DMSO) in sterile water to prepare 2 mM working solutions. The peptide macrocycles and controls were diluted 10-fold first and then serially two-fold diluted in Opti-MEM in the presence of 2%, 4% or 10% of human serum to provide concentrations of the polypeptides equal to between 6.25 to 200 μM in dosing plates. 50 μL of each dilution was then added to the appropriate welts of the test plate to achieve final concentrations of the polypeptides equal to between 3.125 to 100 μM. Controls included wells without polypeptides containing the same concentration of DMSO as the wells containing the macrocycles, wells containing 0.1% Triton X-100 and wells containing no cells. Plates were incubated for 48 hours at 37° C. in humidified 5% CO2 atmosphere.
At the end of the incubation period, CellTiter-Glo assay was performed according to manufacturer's instructions (Promega, catalog #G7573) and luminescence was measured using Synergy HT Plate reader (BioTek).
The following macrocycles derived from the human MAML peptide sequences were tested in cell viability assays with the MOLT-4 tumor cell line: […]

Compound	EC50 (48 h)	EC50 (MOLT-4 cells, 48 hours incubation, CellTiter-Glo, read-out: Molt 4 viability (EC50))
CC[C@H](C)[C@H](NC(=O)[C@H](CCCNC(=N)N)NC(=O)[C@H](CCCNC(=N)N)NC(C)=O)C(=O)N[C@@H](CCC(=O)O)C(=O)N[C@@H](CC(C)C)C(=O)N[C@@H](C)C(=O)N[C@@H](CCCNC(=N)N)C(=O)N[C@@H](CCCNC(=N)N)C(=O)N[C@@]1(C)CCCC=CCCC[C@@](C)(C(=O)N[C@@H](CCC(=O)O)C(=O)N[C@@H](C)C(=O)N[C@@H](CCCNC(=N)N)C(=O)N[C@@H](Cc2ccc(O)cc2)C(=O)N[C@@H](CCC(=O)O)C(=O)N[C@@H](C)C(=O)N[C@H](C(N)=O)C(C)C)NC(=O)[C@H]([C@@H](C)O)NC(=O)[C@H](CO)NC(=O)[C@H](Cc2c[nH]cn2)NC1=O [Compound 18, Ac-RRIELARR$HST$EARYEAV-NH2] (Ac-RRIELARR[S5]HST[S5]EARYEAV-NH2; staple 9-13)	> 20 µM	–
CC[C@H](C)[C@H](NC(=O)[C@H](CCCNC(=N)N)NC(=O)[C@H](CCCNC(=N)N)NC(=O)[C@H](CCCNC(=N)N)NC(=O)[C@H](CC(C)C)NC(=O)[C@H](CCCNC(=N)N)NC(=O)[C@H](CCC(=O)O)NC(C)=O)C(=O)N[C@@H](CCC(=O)O)C(=O)N[C@@H](CC(C)C)C(=O)N[C@@H](CS)C(=O)N[C@@H](CCCNC(=N)N)C(=O)N[C@@H](CCCNC(=N)N)C(=O)N[C@@H](Cc1c[nH]cn1)C(=O)N[C@@H](Cc1c[nH]cn1)C(=O)N[C@@H](CO)C(=O)N[C@H](C(N)=O)[C@@H](C)O [Compound 2, Ac-ERLRRRIELCRRHHST-NH2] (Ac-ERLRRRIELCRRHHST-NH2)	> 20 µM	–
CC[C@H](C)[C@H](NC(=O)[C@H](CCCNC(=N)N)NC(=O)[C@H](CCCNC(=N)N)NC(=O)[C@H](CCCNC(=N)N)NC(=O)[C@H](CC(C)C)NC(=O)[C@H](C)NC(C)=O)C(=O)N[C@@H](CCC(=O)O)C(=O)N[C@@H](CC(C)C)C(=O)N[C@@H](C)C(=O)N[C@@H](C)C(=O)N[C@@H](CCCNC(=N)N)C(=O)N[C@@H](Cc1c[nH]cn1)C(=O)N[C@@H](Cc1c[nH]cn1)C(=O)N[C@@]1(C)CCCC=CCCC[C@@](C)(C(=O)N[C@@H](CCCNC(=N)N)C(=O)N[C@@H](Cc2ccc(O)cc2)C(=O)N[C@@H](CCC(=O)O)C(=O)N[C@@H](C)C(=O)N[C@H](C(N)=O)C(C)C)NC(=O)[C@H](CCC(=O)O)NC(=O)[C@H](C)NC(=O)[C@H]([C@@H](C)O)NC1=O [Compound 24, Ac-ALRRRIELAARHH$TAE$RYEAV-NH2] (Ac-ALRRRIELAARHH[S5]TAE[S5]RYEAV-NH2; staple 14-18)	> 20 µM	–
CC[C@H](C)[C@@H]1NC(=O)[C@H](CCCNC(=N)N)NC(=O)[C@H](CCCNC(=N)N)NC(=O)[C@@](C)(NC(=O)[C@H](CC(C)C)NC(=O)[C@H](CCC(=O)O)NC(=O)[C@H](CCCNC(=N)N)NC(C)=O)CCCC=CCCC[C@@](C)(C(=O)N[C@@H](CC(C)C)C(=O)N[C@@H](CS)C(=O)N[C@@H](CCCNC(=N)N)C(=O)N[C@@H](CCCNC(=N)N)C(=O)N[C@@H](Cc2c[nH]cn2)C(=O)N[C@@H](Cc2c[nH]cn2)C(=O)N[C@@H](CO)C(=O)N[C@H](C(N)=O)[C@@H](C)O)NC1=O [Compound 8, Ac-REL$RRI$LCRRHHST-NH2] (Ac-REL[S5]RRI[S5]LCRRHHST-NH2; staple 4-8)	11.5 µM	–
CC[C@H](C)[C@@H]1NC(=O)[C@@](C)(NC(=O)[C@H](CCCNC(=N)N)NC(=O)[C@H](CCCNC(=N)N)NC(=O)[C@H](CC(C)C)NC(=O)[C@H](CCCNC(=N)N)NC(=O)[C@H](CCC(=O)O)NC(C)=O)CCCC=CCCC[C@@](C)(C(=O)N[C@@H](CCCNC(=N)N)C(=O)N[C@@H](CCCNC(=N)N)C(=O)N[C@@H](Cc2c[nH]cn2)C(=O)N[C@@H](Cc2c[nH]cn2)C(=O)N[C@@H](CO)C(=O)N[C@H](C(N)=O)[C@@H](C)O)NC(=O)[C@H](CC(C)C)NC(=O)[C@H](CCC(=O)O)NC1=O [Compound 16, Ac-ERLRR$IEL$RRHHST-NH2] (Ac-ERLRR[S5]IEL[S5]RRHHST-NH2; staple 6-10)	11.7 µM	–
CC[C@H](C)[C@H](NC(=O)[C@H](CCCNC(=N)N)NC(=O)[C@H](CCCNC(=N)N)NC(C)=O)C(=O)N[C@@H](CCC(=O)O)C(=O)N[C@@H](CC(C)C)C(=O)N[C@@H](C)C(=O)N[C@@H](CCCNC(=N)N)C(=O)N[C@@H](CCCNC(=N)N)C(=O)N[C@@H](Cc1c[nH]cn1)C(=O)N[C@@H](Cc1c[nH]cn1)C(=O)N[C@@]1(C)CCCC=CCCC[C@@](C)(C(=O)N[C@@H](CCCNC(=N)N)C(=O)N[C@@H](Cc2ccc(O)cc2)C(=O)N[C@@H](CCC(=O)O)C(=O)N[C@@H](C)C(=O)N[C@H](C(N)=O)C(C)C)NC(=O)[C@H](CCC(=O)O)NC(=O)[C@H](C)NC(=O)[C@H]([C@@H](C)O)NC1=O [Compound 17, Ac-RRIELARRHH$TAE$RYEAV-NH2] (Ac-RRIELARRHH[S5]TAE[S5]RYEAV-NH2; staple 11-15)	> 20 µM	–
CC[C@H](C)[C@H](NC(=O)[C@H](CCCNC(=N)N)NC(=O)[C@H](CCCNC(=N)N)NC(=O)[C@H](CCCNC(=N)N)NC(=O)[C@H](CC(C)C)NC(=O)[C@H](CCCNC(=N)N)NC(=O)[C@H](CCC(=O)O)NC(C)=O)C(=O)N[C@@H](CCC(=O)O)C(=O)N[C@@H](CC(C)C)C(=O)N[C@@H](C)C(=O)N[C@@H](C)C(=O)N[C@@H](CCCNC(=N)N)C(=O)N[C@@H](Cc1c[nH]cn1)C(=O)N[C@@H](Cc1c[nH]cn1)C(=O)N[C@@]1(C)CCCC=CCCC[C@@](C)(C(=O)N[C@@H](CCCNC(=N)N)C(=O)N[C@@H](Cc2ccc(O)cc2)C(=O)N[C@@H](CCC(=O)O)C(=O)N[C@@H](C)C(=O)N[C@H](C(N)=O)C(C)C)NC(=O)[C@H](CCC(=O)O)NC(=O)[C@H](C)NC(=O)[C@H]([C@@H](C)O)NC1=O [Compound 22, Ac-ERLRRRIELAARHH$TAE$RYEAV-NH2] (Ac-ERLRRRIELAARHH[S5]TAE[S5]RYEAV-NH2; staple 15-19)	> 20 µM	–
CC[C@H](C)[C@H](NC(=O)[C@H](CCCNC(=N)N)NC(=O)[C@H](CCCNC(=N)N)NC(=O)[C@H](CCCNC(=N)N)NC(=O)[C@H](CC(C)C)NC(=O)[C@H](CCCNC(=N)N)NC(=O)[C@H](CCC(=O)O)NC(C)=O)C(=O)N[C@@]1(C)CCCC=CCCC[C@@](C)(C(=O)N[C@@H](Cc2c[nH]cn2)C(=O)N[C@@H](Cc2c[nH]cn2)C(=O)N[C@@H](CO)C(=O)N[C@H](C(=O)N[C@@H](CS)C(=O)N[C@@H](CCC(=O)O)C(=O)N[C@@H](C)C(=O)N[C@@H](CCCNC(=N)N)C(=O)N[C@@H](Cc2ccc(O)cc2)C(=O)N[C@@H](CCC(=O)O)C(=O)N[C@@H](C)C(=O)N[C@H](C(N)=O)C(C)C)[C@@H](C)O)NC(=O)[C@H](CCCNC(=N)N)NC(=O)[C@H](CS)NC(=O)[C@H](CC(C)C)NC1=O [Compound 15, Ac-ERLRRRI$LCR$HHSTCEARYEAV-NH2] (Ac-ERLRRRI[S5]LCR[S5]HHSTCEARYEAV-NH2; staple 8-12)	2.2 µM	–
CC[C@@H]1NC(=O)[C@H](CC(C)C)NC(=O)[C@@](C)(NC(=O)[C@@H](NC(=O)[C@H](CCCNC(=N)N)NC(=O)[C@H](CCCNC(=N)N)NC(=O)[C@H](CCCNC(=N)N)NC(=O)[C@H](CC(C)C)NC(=O)[C@H](C)NC(=O)[C@H](CCCNC(=N)N)NC(C)=O)[C@@H](C)CC)CCCC=CCCC[C@@](C)(C(=O)N[C@@H](Cc2c[nH]cn2)C(=O)N[C@@H](Cc2c[nH]cn2)C(=O)N[C@@H](CO)C(=O)N[C@H](C(N)=O)[C@@H](C)O)NC(=O)[C@H](C)NC1=O [Compound 31, Ac-RALRRRI$LAbuA$HHST-NH2] (Ac-RALRRRI[S5]L[Abu]A[S5]HHST-NH2; staple 8-12)	3.7 µM	–
CC[C@H](C)[C@H](NC(=O)[C@H](CCCNC(=N)N)NC(=O)[C@H](CCCNC(=N)N)NC(=O)[C@H](CCCNC(=N)N)NC(=O)[C@H](CC(C)C)NC(=O)[C@H](C)NC(C)=O)C(=O)N[C@@]1(C)CCCC=CCCC[C@@](C)(C(=O)N[C@@H](Cc2c[nH]cn2)C(=O)N[C@@H](Cc2c[nH]cn2)C(=O)N[C@@H](CO)C(=O)N[C@H](C(N)=O)[C@@H](C)O)NC(=O)[C@H](C)NC(=O)[C@H](C)NC(=O)[C@H](CC(C)C)NC1=O [Compound 20, Ac-ALRRRI$LAA$HHST-NH2] (Ac-ALRRRI[S5]LAA[S5]HHST-NH2; staple 7-11)	≥ 24.4 µM	–
CC[C@H](NC(=O)[C@H](CC(C)C)NC(=O)[C@H](CCC(=O)O)NC(=O)[C@@H](NC(=O)[C@H](CCCNC(=N)N)NC(=O)[C@H](CCCNC(=N)N)NC(=O)[C@H](CCCNC(=N)N)NC(=O)[C@H](CC(C)C)NC(=O)[C@H](C)NC(C)=O)[C@@H](C)CC)C(=O)N[C@@H](C)C(=O)N[C@]1(C)CCCCCCC=CCCC[C@@](C)(C(=O)N[C@@H](CCCNC(=N)N)C(=O)N[C@@H](Cc2ccc(O)cc2)C(=O)N[C@@H](CCC(=O)O)C(=O)N[C@@H](C)C(=O)N[C@H](C(N)=O)C(C)C)NC(=O)[C@H](CCC(=O)O)NC(=O)[C@H](CC)NC(=O)[C@H]([C@@H](C)O)NC(=O)[C@H](CO)NC(=O)[C@H](Cc2c[nH]cn2)NC(=O)[C@H](Cc2c[nH]cn2)NC1=O [Compound 25, Ac-ALRRRIELAbuA$r8HHSTAbuE$RYEAV-NH2] (Ac-ALRRRIEL[Abu]A[R8]HHST[Abu]E[S5]RYEAV-NH2; staple 11-18)	–	> 20 µM
